Results from publication PMC4522657, “Identification of a DYRK1A Inhibitor that Induces Degradation of the Target Kinase using Co-chaperone CDC37 fused with Luciferase nanoKAZ” (Scientific Reports, 2015).

Assays:
[1] = target: T1, FLT1 (Homo sapiens, UniProt P17948); assay: Kinase panel, CaNDY 1 µM; assay type: biochemical; details: CaNDY 1 µM relative to DMSO
T1 construct: purchased Carna Biosciences

[2] = target: T2, TRKA (Homo sapiens, UniProt P04629); assay: Kinase panel, CaNDY 1 µM; assay type: biochemical; details: CaNDY 1 µM relative to DMSO
T2 construct: purchased Carna Biosciences

[3] = target: T3, EGFR(d746-750/T790M) (Homo sapiens, UniProt P00533, DEL746-750/T790M); assay: Kinase panel, CaNDY 1 µM; assay type: biochemical; details: CaNDY 1 µM relative to DMSO
T3 construct: purchased Carna Biosciences

[4] = target: T4, FGFR4 (Homo sapiens, UniProt P22455); assay: Kinase panel, CaNDY 1 µM; assay type: biochemical; details: CaNDY 1 µM relative to DMSO
T4 construct: purchased Carna Biosciences

[5] = target: T5, RET(S891A) (Homo sapiens, UniProt P07949, S891A); assay: Kinase panel, CaNDY 1 µM; assay type: biochemical; details: CaNDY 1 µM relative to DMSO
T5 construct: purchased Carna Biosciences

[6] = target: T6, MSK1 (Homo sapiens, UniProt O75582); assay: Kinase panel, CaNDY 1 µM; assay type: biochemical; details: CaNDY 1 µM relative to DMSO
T6 construct: purchased Carna Biosciences

[7] = target: T7, PLK2 (Homo sapiens, UniProt Q9NYY3); assay: Kinase panel, CaNDY 1 µM; assay type: biochemical; details: CaNDY 1 µM relative to DMSO
T7 construct: purchased Carna Biosciences

[8] = target: T8, PLK1 (Homo sapiens, UniProt P53350); assay: Kinase panel, CaNDY 1 µM; assay type: biochemical; details: CaNDY 1 µM relative to DMSO
T8 construct: purchased Carna Biosciences

[9] = target: T9, PKCα (Homo sapiens, UniProt P17252); assay: Kinase panel, CaNDY 1 µM; assay type: biochemical; details: CaNDY 1 µM relative to DMSO
T9 construct: purchased Carna Biosciences

[10] = target: CLK1 (Homo sapiens, UniProt P49759); assay: Western blot of target kinase expression in HEK293 cells; assay type: cell-based; design: endogenous in cells; host or cells: HEK293; details: CaNDY 2 μM, 4 days
Description: (§1) To check selectivity of CaNDY for other kinases, we first examined protein expression of several kinases in HEK293 cells treated with CaNDY (2 μM) for 4 days. […] Third, protein expression of these kinases targeted by CaNDY (DYRK1A, DYRK1B, CLK1, and Haspin) was reassessed by Western blot analysis as performed in Fig. 7b.
(§2) Western blot analysis was performed using the antibodies described above. In brief, total cell lysates were separated by SDS-PAGE (5–20% gels; ATTO, Tokyo, Japan) under reducing conditions and then transferred to a PVDF membrane (PALL, SP, Brazil). Antibody reactions were performed with Can Get Signal® Immunoreaction Enhancer Solution (Toyobo). Peroxidase activities on the membrane were visualized with ECL Western Blotting Detection Reagents (GE Healthcare) or ImmunoStar® LD (Wako Pure Chemical Industries, Osaka, Japan), and a ChemiDoc^TM MP Imaging System (Bio-Rad, Hercules, CA, USA).

[11] = target: DYRK1B (Homo sapiens, UniProt Q9Y463); assay: as above; assay type: cell-based; design: endogenous in cells; host or cells: HEK293; details: CaNDY 2 μM, 4 days
Description: as §1, §2

[12] = target: T10, KIT(V560G) (Homo sapiens, UniProt P10721, V560G); assay: Kinase panel, CaNDY 1 µM; assay type: biochemical; details: CaNDY 1 µM relative to DMSO
T10 construct: purchased Carna Biosciences

[13] = target: T11, JAK1 (Homo sapiens, UniProt P23458); assay: Kinase panel, CaNDY 1 µM; assay type: biochemical; details: CaNDY 1 µM relative to DMSO
T11 construct: purchased Carna Biosciences

[14] = target: T12, PYK2 (Homo sapiens, UniProt Q14289); assay: Kinase panel, CaNDY 1 µM; assay type: biochemical; details: CaNDY 1 µM relative to DMSO
T12 construct: purchased Carna Biosciences

[15] = target: T13, HER2 (Homo sapiens, UniProt P04626); assay: Kinase panel, CaNDY 1 µM; assay type: biochemical; details: CaNDY 1 µM relative to DMSO
T13 construct: purchased Carna Biosciences

[16] = target: T14, CRIK (Homo sapiens, UniProt O14578); assay: Kinase panel, CaNDY 1 µM; assay type: biochemical; details: CaNDY 1 µM relative to DMSO
T14 construct: purchased Carna Biosciences

[17] = target: T15, CK1γ2 (Homo sapiens, UniProt P78368); assay: Kinase panel, CaNDY 1 µM; assay type: biochemical; details: CaNDY 1 µM relative to DMSO
T15 construct: purchased Carna Biosciences

[18] = target: T16, PKCβ1 (Homo sapiens, UniProt P05771); assay: Kinase panel, CaNDY 1 µM; assay type: biochemical; details: CaNDY 1 µM relative to DMSO
T16 construct: purchased Carna Biosciences

[19] = target: T17, PAK6 (Homo sapiens, UniProt Q9NQU5); assay: Kinase panel, CaNDY 1 µM; assay type: biochemical; details: CaNDY 1 µM relative to DMSO
T17 construct: purchased Carna Biosciences

[20] = target: T18, PIM1 (Homo sapiens, UniProt P11309); assay: Kinase panel, CaNDY 1 µM; assay type: biochemical; details: CaNDY 1 µM relative to DMSO
T18 construct: purchased Carna Biosciences

[21] = target: T19, FYN (Homo sapiens, UniProt P06241); assay: Kinase panel, CaNDY 1 µM; assay type: biochemical; details: CaNDY 1 µM relative to DMSO
T19 construct: purchased Carna Biosciences

[22] = target: T20, MAPKAPK3 (Homo sapiens, UniProt Q16644); assay: Kinase panel, CaNDY 1 µM; assay type: biochemical; details: CaNDY 1 µM relative to DMSO
T20 construct: purchased Carna Biosciences

[23] = target: T21, NDR2 (Homo sapiens, UniProt Q9Y2H1); assay: Kinase panel, CaNDY 1 µM; assay type: biochemical; details: CaNDY 1 µM relative to DMSO
T21 construct: purchased Carna Biosciences

[24] = target: T22, MAP3K1_Cascade (Homo sapiens, UniProt Q13233); assay: Kinase panel, CaNDY 1 µM; assay type: biochemical; details: CaNDY 1 µM relative to DMSO
T22 construct: purchased Carna Biosciences

[25] = target: T23, CK2α1/β (Homo sapiens, UniProt P68400); assay: Kinase panel, CaNDY 1 µM; assay type: biochemical
T23 construct: purchased Carna Biosciences

[26] = target: T24, Erk2 (Homo sapiens, UniProt P28482); assay: Kinase panel, CaNDY 1 µM; assay type: biochemical; details: CaNDY 1 µM relative to DMSO
T24 construct: purchased Carna Biosciences

T23 sequence (P68400 whole entry): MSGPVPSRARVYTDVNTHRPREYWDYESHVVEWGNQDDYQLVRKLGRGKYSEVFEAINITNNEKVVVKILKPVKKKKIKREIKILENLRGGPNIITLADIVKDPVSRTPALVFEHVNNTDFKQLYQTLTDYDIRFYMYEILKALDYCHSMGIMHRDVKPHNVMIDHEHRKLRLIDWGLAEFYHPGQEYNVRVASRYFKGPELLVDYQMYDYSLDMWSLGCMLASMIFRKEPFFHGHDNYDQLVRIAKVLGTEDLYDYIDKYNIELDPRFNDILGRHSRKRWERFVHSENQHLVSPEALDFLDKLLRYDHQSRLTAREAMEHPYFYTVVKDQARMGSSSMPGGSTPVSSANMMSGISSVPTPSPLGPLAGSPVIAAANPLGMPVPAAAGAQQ
T23 sequence (P67870 whole entry partner): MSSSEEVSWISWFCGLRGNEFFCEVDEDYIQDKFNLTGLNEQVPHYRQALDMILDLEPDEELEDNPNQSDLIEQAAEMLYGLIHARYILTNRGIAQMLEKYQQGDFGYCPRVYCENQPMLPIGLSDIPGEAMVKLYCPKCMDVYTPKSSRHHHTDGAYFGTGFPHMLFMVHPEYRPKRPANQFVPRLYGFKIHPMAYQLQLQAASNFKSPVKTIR
Chain of CLK1 (P49759 whole entry): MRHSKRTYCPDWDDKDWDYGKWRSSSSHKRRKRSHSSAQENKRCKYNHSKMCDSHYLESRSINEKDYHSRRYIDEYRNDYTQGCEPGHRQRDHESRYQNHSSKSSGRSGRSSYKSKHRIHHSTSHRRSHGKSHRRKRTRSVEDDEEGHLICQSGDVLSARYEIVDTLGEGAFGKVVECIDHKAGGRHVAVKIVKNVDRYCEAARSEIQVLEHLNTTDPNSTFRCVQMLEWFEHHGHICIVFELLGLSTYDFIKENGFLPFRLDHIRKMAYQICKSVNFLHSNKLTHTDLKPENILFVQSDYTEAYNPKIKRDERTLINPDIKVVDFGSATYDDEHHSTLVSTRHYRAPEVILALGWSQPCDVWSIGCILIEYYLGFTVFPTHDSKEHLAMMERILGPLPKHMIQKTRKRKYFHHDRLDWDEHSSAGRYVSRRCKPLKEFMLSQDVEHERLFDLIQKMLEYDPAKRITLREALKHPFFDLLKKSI
Chain of DYRK1B (Q9Y463 whole entry): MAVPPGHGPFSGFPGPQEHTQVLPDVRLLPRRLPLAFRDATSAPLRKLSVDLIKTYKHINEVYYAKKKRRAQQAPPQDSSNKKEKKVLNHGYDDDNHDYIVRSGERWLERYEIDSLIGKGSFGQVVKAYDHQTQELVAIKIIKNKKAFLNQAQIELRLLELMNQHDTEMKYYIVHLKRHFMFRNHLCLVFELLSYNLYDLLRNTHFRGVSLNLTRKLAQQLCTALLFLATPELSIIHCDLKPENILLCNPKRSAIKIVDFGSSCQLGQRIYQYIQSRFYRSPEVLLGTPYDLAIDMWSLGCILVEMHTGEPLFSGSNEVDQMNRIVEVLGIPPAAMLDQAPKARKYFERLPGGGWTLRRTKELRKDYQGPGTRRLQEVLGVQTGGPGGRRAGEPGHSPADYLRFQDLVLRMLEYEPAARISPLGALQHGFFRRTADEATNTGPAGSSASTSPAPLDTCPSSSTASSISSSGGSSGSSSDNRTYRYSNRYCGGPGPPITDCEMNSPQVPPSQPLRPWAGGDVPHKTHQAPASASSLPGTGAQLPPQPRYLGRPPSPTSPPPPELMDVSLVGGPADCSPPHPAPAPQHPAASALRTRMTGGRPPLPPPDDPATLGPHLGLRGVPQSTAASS
T7 sequence (Q9NYY3 whole entry): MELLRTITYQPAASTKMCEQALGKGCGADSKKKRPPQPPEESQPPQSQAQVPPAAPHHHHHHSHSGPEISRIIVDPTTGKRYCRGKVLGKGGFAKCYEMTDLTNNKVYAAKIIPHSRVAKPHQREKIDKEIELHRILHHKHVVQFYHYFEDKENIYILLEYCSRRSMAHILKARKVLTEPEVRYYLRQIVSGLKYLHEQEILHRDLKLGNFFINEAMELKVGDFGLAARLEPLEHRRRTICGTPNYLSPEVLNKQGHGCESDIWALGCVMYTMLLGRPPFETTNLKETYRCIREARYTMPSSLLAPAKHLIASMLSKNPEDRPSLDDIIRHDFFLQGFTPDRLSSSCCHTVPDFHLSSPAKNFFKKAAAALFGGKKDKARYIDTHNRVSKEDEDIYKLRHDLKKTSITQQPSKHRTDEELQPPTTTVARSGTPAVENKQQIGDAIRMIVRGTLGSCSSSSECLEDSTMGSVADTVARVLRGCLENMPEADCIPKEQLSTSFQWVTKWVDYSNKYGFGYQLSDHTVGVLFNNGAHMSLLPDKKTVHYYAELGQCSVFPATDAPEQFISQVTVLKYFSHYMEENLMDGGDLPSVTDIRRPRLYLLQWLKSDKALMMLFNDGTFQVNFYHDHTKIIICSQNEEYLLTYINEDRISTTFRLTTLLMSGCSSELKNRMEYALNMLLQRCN
T1 sequence (P17948 27-1338): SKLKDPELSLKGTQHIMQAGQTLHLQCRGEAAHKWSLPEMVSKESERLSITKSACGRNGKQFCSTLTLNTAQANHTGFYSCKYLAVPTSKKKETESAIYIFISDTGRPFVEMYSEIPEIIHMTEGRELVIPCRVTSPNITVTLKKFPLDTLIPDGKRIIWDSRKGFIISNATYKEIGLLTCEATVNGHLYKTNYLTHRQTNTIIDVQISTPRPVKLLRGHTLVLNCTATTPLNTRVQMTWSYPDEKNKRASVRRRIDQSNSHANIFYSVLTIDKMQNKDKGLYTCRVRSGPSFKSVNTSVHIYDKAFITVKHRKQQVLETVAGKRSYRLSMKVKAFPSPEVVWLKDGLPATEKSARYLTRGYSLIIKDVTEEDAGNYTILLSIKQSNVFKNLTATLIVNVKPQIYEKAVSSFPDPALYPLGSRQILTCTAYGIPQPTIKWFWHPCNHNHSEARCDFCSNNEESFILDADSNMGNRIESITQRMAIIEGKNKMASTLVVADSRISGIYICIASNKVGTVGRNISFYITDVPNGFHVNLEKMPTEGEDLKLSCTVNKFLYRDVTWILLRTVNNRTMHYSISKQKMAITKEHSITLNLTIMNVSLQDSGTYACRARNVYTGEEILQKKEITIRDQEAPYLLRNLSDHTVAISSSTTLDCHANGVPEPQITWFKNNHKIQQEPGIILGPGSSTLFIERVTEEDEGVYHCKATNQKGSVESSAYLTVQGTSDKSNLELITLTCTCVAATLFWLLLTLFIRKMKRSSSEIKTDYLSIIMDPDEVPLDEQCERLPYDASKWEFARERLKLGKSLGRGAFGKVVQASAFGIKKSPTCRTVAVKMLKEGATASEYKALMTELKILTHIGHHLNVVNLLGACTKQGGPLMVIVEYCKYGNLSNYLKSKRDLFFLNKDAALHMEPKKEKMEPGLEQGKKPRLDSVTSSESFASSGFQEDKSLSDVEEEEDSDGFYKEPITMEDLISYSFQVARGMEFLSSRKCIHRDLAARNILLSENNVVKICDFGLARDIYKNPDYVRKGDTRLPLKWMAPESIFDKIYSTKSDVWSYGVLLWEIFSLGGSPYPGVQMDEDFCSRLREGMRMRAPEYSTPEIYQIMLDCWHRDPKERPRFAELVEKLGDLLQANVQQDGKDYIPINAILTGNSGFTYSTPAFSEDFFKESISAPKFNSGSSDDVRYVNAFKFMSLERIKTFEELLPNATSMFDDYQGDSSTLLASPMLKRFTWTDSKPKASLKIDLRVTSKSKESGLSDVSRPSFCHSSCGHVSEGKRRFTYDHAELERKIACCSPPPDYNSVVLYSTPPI
T20 sequence (Q16644 whole entry): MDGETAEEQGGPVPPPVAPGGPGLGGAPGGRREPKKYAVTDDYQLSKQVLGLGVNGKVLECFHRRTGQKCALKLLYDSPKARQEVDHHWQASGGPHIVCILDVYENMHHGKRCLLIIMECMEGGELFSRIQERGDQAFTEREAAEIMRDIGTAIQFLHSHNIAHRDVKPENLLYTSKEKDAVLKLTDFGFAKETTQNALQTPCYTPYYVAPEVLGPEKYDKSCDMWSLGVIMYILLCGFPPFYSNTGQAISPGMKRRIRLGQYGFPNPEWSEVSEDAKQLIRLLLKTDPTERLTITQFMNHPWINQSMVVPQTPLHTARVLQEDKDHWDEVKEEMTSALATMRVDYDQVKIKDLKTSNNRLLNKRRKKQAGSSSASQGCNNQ

[H]/N=C1/NC(=O)C(=Cc2ccc3c(c2)CCO3)S1 [CaNDY, (Z)-5-[(2,3-dihydrobenzofuran-5-yl)methylene]-2-iminothiazolidin-4-one]
remaining activity at 1 µM [1]: 102% | remaining activity at 1 µM [2]: 101% | %Activity [3]: 101.0% | remaining activity at 1 µM [4]: 107% | remaining activity at 1 µM [5]: 103% | remaining activity at 1 µM [6]: 98.1% | %Activity [7]: 95.9% | remaining activity at 1 µM [8]: 99.2% | remaining activity at 1 µM [9]: 82.4% | protein expression of CLK1 [10]: decreased expression | protein expression of DYRK1B [11]: decreased expression | remaining activity at 1 µM [12]: 101% | %Activity [13]: 96.9% | remaining activity at 1 µM [14]: 98.7% | remaining activity at 1 µM [15]: 106% | %Activity [16]: 87.0% | %Activity [17]: 75.4% | remaining activity at 1 µM [18]: 83.8% | remaining activity at 1 µM [19]: 101% | remaining activity at 1 µM [20]: 36.5% | remaining activity at 1 µM [21]: 102% | remaining activity at 1 µM [22]: 103% | remaining activity at 1 µM [23]: 91.9% | remaining activity at 1 µM [24]: 99% | remaining activity at 1 µM ([25]; CK2α1/β, CaNDY 1 µM relative to DMSO): 34.7% | inhibition at 1 µM ([25]; CK2α, 1 μM CaNDY, read-out: percentage inhibition): 65% | remaining activity at 1 µM [26]: 97.6%
